# From US6462173B1, “Inhibitors of phosphoserine and phosphothreonine-proline-specific isomerases” (Max-Planck-Gesellschaft zur Forderung der, priority 1997, dated 2002)
# How the values were obtained:
# MPM-2 antigens = assay: GST-Pin1 pull-down / depletion of MPM-2 antigens from HeLa cell extracts, MPM-2 immunoblotting; assay type: binding, human
# Method: To detect Pin1-binding proteins, either HeLa cells were lysed in or Xenopus extracts were diluted in a buffer (buffer A) containing 50 mM Tris-HCl, pH 8.0, 200 mM NaCl, 100 mM NaF, 1 mM sodium orthovanadate, 10% glycerol, 1% Triton X100, 10 μg/ml aprotinin, 50 μg/ml phenylmethylsulfonyl fluoride and 1 mM DTT. The lysates were preclarified with boiled S. aureus bacteria (CalBiochem) and then incubated with 10 μl of agarose beads containing various GST-Pin1 proteins or control GST for 2 h at 4° C. The precipitated proteins were washed 5 times in the same buffer and subjected to immunoblotting analysis. Immunoprecipitation and immunoblotting analysis using MPM-2 antibody (Davis et al. 1983), which was kindly provided by J. Kuang, Pin1 antibodies (Lu et al., 1996, kindly provided by M. White or newly generated), anti-phospho.Tyr antibody (UBI), anti-Cdc25C (Ogg, et al., 1994) (from H. Piwnica-Worms and Santa Cruz Biotechnology), anti-Cdc27, anti-Plk1 (Zymed), anti-Cdc2 (Solomon, M. J., M. Glotzer, T. H. Lee, M. Philippe and M. W. Kirschner. Cell 63:1013-1024 (1991), anti-human Myt1, anti-human cyclin B1 and anti-Xenopus cyclin B were performed, as described previously in Lu and Hunter, 1995; Lu et al., 1996).
# To determine whether GST-Pin1 can deplete MPM-2 antigens and to estimate what concentrations of Pin1 are required to completely deplete MPM-2 antigens, mitotic extracts were incubated with different amounts of GST-Pin1, followed by analyzing MPM-2 antigens remaining in the depleted supernatants. The total cellular Pin1 concentration in HeLa cells was estimated to be about 0.5 μM, based on immunoblotting analysis using anti-Pin1 antibodies with recombinant Pin1 protein as a standard.
# To determine if the Pin1 mutants interact with mitotic phosphoproteins, GST-Pin1, -Pin1^R68,69A and -Pin1^H59A fusion proteins were incubated with interphase or mitotic HeLa cell extracts and associated proteins subjected to MPM-2 immunoblotting analysis. […] A few proteins including the most strongly reacting p55 band could still be recognized. […] Thus, mutating the residues that are implicated in binding either the substrate's putative phosphate group or the substrate's Pro residue abolish the ability of Pin1 to bind MPM-2 antigens.
# Xenopus egg extracts = assay: Entry into mitosis in Xenopus CSF egg extracts; assay type: biochemical; settings: 10 or 40 μM, added 15 min after Ca2+
# Method: Xenopus CSF extracts were prepared from unfertilized eggs, as previously described (Murray, 1991) and used immediately. To examine the effect of Pin1 on mitotic entry, a fresh CSF extract containing demembranated sperm (150/μl) and rhodamine tubulin (2 μg/ml) was activated by addition of 0.4 mM calcium chloride for 15 min, before the indicated concentrations of various Pin1 proteins were added and mitotic entry was followed for 2 h by nuclear morphology, nuclear envelope breakdown, spindle formation and Cdc2 activity, as described previously (Murray, A. W., Methods Cell Biol 36:581-605 (1991)). The cell cycle state of nuclei within the extracts were over 90% synchronous and typical nuclei were photographed.
# To examine whether increasing the concentration of Pin1 has similar biological effects in Xenopus, Pin1 or Pin1 mutants were injected into one cell of 2 cell stage embryos and allowed the embryos to develop for 3 h (about 5 divisions). […] A similar concentration (4 μM final) of either Pin1 mutant had little effect on the cell cycle. […] In contrast, higher concentrations of the mutant proteins were needed to block the cell cycle (FIG. 1). […] In contrast, the same extracts containing 40 μM of either BSA or the mutant Pin1 proteins entered mitosis by 70 to 80 min as detected by nuclear envelope breakdown, spindle formation and high histone H1 kinase activity. […]
# cyclin B/Cdc2 = biological target: T1, cyclin B/Cdc2 (Xenopus laevis, UniProt P35567); assay: Activity of dephosphorylated-active cyclin B/Cdc2; assay type: biochemical; settings: same conditions as Cdc25 assay
# T1 construct: from tissue; host or cells: Xenopus interphase egg extract (Cdc2); recombinant GST cyclin B added
# Method: Cdc2 was assayed using histone H1 as a substrate, as previously described in Murray, 1991; Lu and Hunter, (1995).
# Therefore, we tested whether Pin1 could affect the physiological activity of Cdc25, which is to dephosphorylate and activate the cyclin B/Cdc2 complex. To generate the mitotically phosphorylated form of Cdc25, GST-Cdc25 was incubated in Xenopus mitotic extracts, affinity purified on glutathione agarose beads and eluted. […] This offers one explanation for the ability of Pin1 to inhibit mitotic entry.
# T1 sequence (P35567 whole entry): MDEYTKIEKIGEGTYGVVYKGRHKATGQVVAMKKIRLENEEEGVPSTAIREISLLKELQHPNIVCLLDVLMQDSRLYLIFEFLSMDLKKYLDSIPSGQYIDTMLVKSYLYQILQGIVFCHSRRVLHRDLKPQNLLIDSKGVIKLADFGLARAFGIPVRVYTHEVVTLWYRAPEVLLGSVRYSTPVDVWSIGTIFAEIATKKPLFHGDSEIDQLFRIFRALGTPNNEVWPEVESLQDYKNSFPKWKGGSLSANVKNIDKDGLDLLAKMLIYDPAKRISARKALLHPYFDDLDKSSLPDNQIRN
# T1 sequence (P07818 whole entry partner): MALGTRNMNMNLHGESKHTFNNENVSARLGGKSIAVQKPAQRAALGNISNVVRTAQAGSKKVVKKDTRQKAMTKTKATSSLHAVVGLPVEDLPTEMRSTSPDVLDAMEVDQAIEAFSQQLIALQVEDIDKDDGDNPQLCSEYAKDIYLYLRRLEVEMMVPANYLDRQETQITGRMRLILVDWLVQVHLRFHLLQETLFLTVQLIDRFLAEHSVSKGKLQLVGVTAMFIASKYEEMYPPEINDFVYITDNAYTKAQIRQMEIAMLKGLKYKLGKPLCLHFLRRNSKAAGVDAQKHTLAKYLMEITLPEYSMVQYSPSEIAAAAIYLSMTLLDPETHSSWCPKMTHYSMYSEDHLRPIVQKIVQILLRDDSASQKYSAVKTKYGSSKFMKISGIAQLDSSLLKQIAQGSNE
substance,measurement,setting,value
"Pin1: essential mitotic peptidyl-prolyl cis-trans isomerase, recombinant protein",depletion of MPM-2 antigens,"MPM-2 antigens; 8 μM GST-Pin1, mitotic extracts",depleted the majority of MPM-2 antigens
same,binding of MPM-2 antigens,"MPM-2 antigens; mitotic HeLa cell extracts, GST fusion proteins",specifically interacted with MPM-2 antigens
same,entry into mitosis,Xenopus egg extracts,completely blocked entry into mitosis
same,effect on cdc2 activity,cyclin B/Cdc2,Neither Pin1 nor the Pin1 mutant had any effect on cdc2 activity
